What follows are molecules tested against purified PARP protein (Homo sapiens, UniProt P09874) (assay: PARP Enzyme Inhibition Assay). Conditions: [32P]NAD+ incorporation, 500 μM NAD+, 25° C.; competitive inhibition fit; read-out: Inhibition Constant Ki.
Format: biochemical
Description: The PARP enzyme-inhibiting activities of test compounds were assayed as described by Simonin et al. (J. Biol. Chem. (1993), 268:8529-8535) and Marsischky et al. (J. Biol. Chem. (1995), 270:3247-3254) with minor modifications as follows. Samples (50 μL) containing 20 nM purified PARP protein, 10 μg/mL DNAse I-activated calf thymus DNA (sigma), 500 μM NAD^+, 0.5 μCi [^32P]NAD^+, 2% DMSO, and various concentrations of test compounds were incubated in sample buffer (50 mM Tris pH 8.0, 10 mM MgCl2, 1 mM tris(carboxyethyl)phosphine HCl) at 25° C. for 5 minutes. Under these conditions, the reaction rate was linear for times up to 10 minutes. The reaction was stopped by the addition of an equal volume of ice-cold 40% trichloroacetic acid to the samples, which were then incubated on ice for 15 minutes. The samples were then transferred to a Bio-Dot microfiltration apparatus (BioRad), filtered through Whatman GF/C glass-fiber filter paper, washed 3 times with 150 μL of wash buffer (5% trichloroacetic acid, 1% inorganic pyrophosphate), and dried. [^32P]ADP-Ribose incorporation into the acid-insoluble material was quantitated using a PhosphorImager (Molecular Dynamics) and ImageQuant software. Inhibition constants (Ki) were calculated by non-linear regression analyses using the velocity equation for competitive inhibition (Segel, Enzyme Kinetics: Behavior and Analysis of Rapid Equilibrium and Steady-State Enzyme Systems, John Wiley & Sons, Inc., New York (1975), 100-125). In the case of tight-binding inhibitors, 5 nM enzyme was used and the reaction was incubated at 25° C. for 25 minutes. Ki values for tight-binding inhibitors were calculated using the equation described by Sculley et al. (Biochim. Biophys. Acta (11986), 874:44-53).

Chain of purified PARP protein (P09874 whole entry): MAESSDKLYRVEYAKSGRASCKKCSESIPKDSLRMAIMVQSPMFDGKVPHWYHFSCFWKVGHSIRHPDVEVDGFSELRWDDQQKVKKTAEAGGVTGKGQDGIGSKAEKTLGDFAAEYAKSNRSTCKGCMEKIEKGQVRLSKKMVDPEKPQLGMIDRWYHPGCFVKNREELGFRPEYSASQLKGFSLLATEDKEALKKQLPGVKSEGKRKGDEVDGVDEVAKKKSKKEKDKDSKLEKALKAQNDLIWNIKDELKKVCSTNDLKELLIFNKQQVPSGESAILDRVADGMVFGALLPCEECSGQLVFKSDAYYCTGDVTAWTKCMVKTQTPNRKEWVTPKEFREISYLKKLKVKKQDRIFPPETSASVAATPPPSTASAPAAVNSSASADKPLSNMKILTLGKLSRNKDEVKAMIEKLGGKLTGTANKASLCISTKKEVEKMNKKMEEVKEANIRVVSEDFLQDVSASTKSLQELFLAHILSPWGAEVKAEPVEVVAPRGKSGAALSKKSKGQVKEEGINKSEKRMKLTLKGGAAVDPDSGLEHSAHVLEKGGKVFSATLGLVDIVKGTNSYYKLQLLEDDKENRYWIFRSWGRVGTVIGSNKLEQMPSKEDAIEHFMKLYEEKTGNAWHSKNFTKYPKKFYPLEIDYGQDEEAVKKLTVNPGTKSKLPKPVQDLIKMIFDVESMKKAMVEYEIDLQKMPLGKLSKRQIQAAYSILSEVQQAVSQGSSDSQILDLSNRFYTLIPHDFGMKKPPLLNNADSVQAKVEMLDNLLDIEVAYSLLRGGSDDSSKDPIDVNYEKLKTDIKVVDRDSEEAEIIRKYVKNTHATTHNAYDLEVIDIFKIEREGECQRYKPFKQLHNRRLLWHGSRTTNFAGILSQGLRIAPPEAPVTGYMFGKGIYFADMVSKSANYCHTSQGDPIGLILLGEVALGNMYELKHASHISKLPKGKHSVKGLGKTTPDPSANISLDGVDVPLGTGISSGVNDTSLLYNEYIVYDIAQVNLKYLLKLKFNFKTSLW

| Ki [nM] | SMILES |
| --- | --- |
| 12 | NC(=O)c1cccc2[nH]c(CSc3nc4ccccc4s3)nc12 [Compound 2, 2-(Benzothiazol-2-ylsulfanylmethyl)-1H-benzimidazole-4 carboxylic Acid Amide] |
| 8 | NC(=O)c1cccc2[nH]c(CSc3ccc([N+](=O)[O-])cc3)nc12 [Compound 3, 2-(4-Nitro-phenylsulfanylmethyl)-1H-benzimidazole-4-carboxylic Acid Amide] |
| 13 | NC(=O)c1cccc2[nH]c(CSc3ccc(O)cc3)nc12 [Compound 4, 2-(4-Hydroxy-phenylsulfanylmethyl)-1H-benzimidazole-4-carboxylic Acid Amide] |
| 11 ± 1 | CC(=O)Nc1nnc(SCc2nc3c(C(N)=O)cccc3[nH]2)s1 [Compound 5, 2-(5-Acetylamino-[1,3,4]thiadiazol-2-ylsulfanylmethyl)-1H-benzimidazole-4-carboxylic Acid Amide] |
| 102 | NC(=O)c1cccc2[nH]c(CSc3nnc(-c4ccccc4)o3)nc12 [Compound 6, 2-(5-Phenyl-[1,3,4]oxadiazol-2-ylsulfanylmethyl)-1H-benzimidazole-4-carboxylic Acid Amide] |
| 9 ± 1 | COc1ccc(SCc2nc3c(C(N)=O)cccc3[nH]2)cc1 [Compound 8, 2-(4-Methoxy-phenylsulfanylmethyl)-1H-benzimidazole-4-carboxylic Acid Amide] |
| 17 ± 1 | NC(=O)c1cccc2[nH]c(CSc3ccc(N)cc3)nc12 [Compound 10, 2-(4-Amino-phenylsulfanylmethyl)-1H-benzimidazole-4-carboxylic Acid Amide] |
| 33 ± 6 | CCCCCCCSCc1nc2c(C(N)=O)cccc2[nH]1 [Compound 11, 2-Heptylsulfanylmethyl-1H-benzimidazole-4-carboxylic Acid Amide] |
| 91 ± 3 | CN(C)c1ccc(SCc2nc3c(C(N)=O)cccc3[nH]2)cc1 [Compound 12, 2-(4-Dimethylamino-phenylsulfanylmethyl)-1H-benzimidazole-4-carboxylic Acid Amide] |
| 39 ± 5 | NC(=O)c1cccc2[nH]c(CSc3ccc(C(F)(F)F)cc3)nc12 [Compound 13, 2-(4-Trifluoromethyl-phenylsulfanylmethyl)-1H-benzimidazole-4-carboxylic Acid Amide] |
| 11 ± 2 | CSc1ccc(SCc2nc3c(C(N)=O)cccc3[nH]2)cc1 [Compound 14, 2-(4-Methylsulfanyl-phenylsulfanylmethyl)-1H-benzimidazole-4-carboxylic Acid Amide] |
| 45 ± 3 | CN(Cc1nc2c(C(N)=O)cccc2[nH]1)Cc1ccccc1O [Compound 15] |
| 15 ± 3 | NC(=O)c1cccc2[nH]c(CNCCCN3CCCC3)nc12 [Compound 16, 2-[(3-Pyrrolidin-1-yl-propylamino)-methyl]-1H-benzimidazole-4-carboxylic Acid Amide] |
| 14 ± 3 | CN(Cc1nc2c(C(N)=O)cccc2[nH]1)c1ccccc1 [Compound 20, 2-[(Methyl-phenyl-amino)-methyl]-1H-benzimidazole-4-carboxylic Acid Amide] |
| 9 ± 2 | NC(=O)c1cccc2[nH]c(CNC3CN4CCC3CC4)nc12 (stereo not drawn) [Compound 21, 2-[(1-Aza-bicyclo[2.2.2]oct-3-ylamino)-methyl]-1H-benzimidazole-4-carboxylic Acid Amide] |
| 17 | NC(=O)c1cccc2[nH]c(CN3CCC(N)C3)nc12 (stereo not drawn) [Compound 22, 2-(3-Amino-pyrrolidin-1-ylmethyl)-1H-benzimidazole-4-carboxylic Acid Amide] |
| 14 | CNCCN(C)Cc1nc2c(C(N)=O)cccc2[nH]1 [Compound 23, 2-{[Methyl-(2-methylamino-ethyl)-amino]-methyl}-1H-benzimidazole-4-carboxylic Acid Amide] |
| 36 ± 2 | CCC(=O)Nc1ccc(SCc2nc3c(C(N)=O)cccc3[nH]2)cc1 [Compound 24, 2-(4-Propionylamino-phenylsulfanylmethyl)-1H-benzimidazole-4-carboxylic Acid Amide] |
| 39 | NC(=O)c1cccc2[nH]c(CSc3ccc(NC(=O)OCc4ccccc4)cc3)nc12 [Compound 25] |
| 38 ± 1 | COC(=O)Nc1ccc(SCc2nc3c(C(N)=O)cccc3[nH]2)cc1 [Compound 26] |
| 61 ± 10 | CCCCCCCS(=O)(=O)Cc1nc2c(C(N)=O)cccc2[nH]1 [Compound 31, 2-(Heptane-1-sulfonylmethyl)-1H-benzimidazole-4-carboxylic Acid Amide] |

| Ki [nM] | SMILES |
| --- | --- |
| 5 ± 1 | CS(=O)(=O)c1ccc(S(=O)(=O)Cc2nc3c(C(N)=O)cccc3[nH]2)cc1 [Compound 35, 2-(4-Methanesulfonyl-benzenesulfonylmethyl)-1H-benzimidazole-4-carboxylic Acid Amide] |
| 17.8 ± 0.8 | CCC(=O)Nc1ccc(S(=O)(=O)Cc2nc3c(C(N)=O)cccc3[nH]2)cc1 [Compound 36, 2-(4-Propionylamino-benzenesulfonylmethyl)-1H-benzimidazole-4-carboxylic Acid Amide] |
| 28.5 ± 0.5 | COC(=O)Nc1ccc(S(=O)(=O)Cc2nc3c(C(N)=O)cccc3[nH]2)cc1 [Compound 37, [4-(4-Carbamoyl-1H-benzoimidazol-2-ylmethanesulfonyl)-phenyl]-carbamic Acid Methyl Ester] |
| 29.5 ± 2.5 | NC(=O)Nc1ccc(S(=O)(=O)Cc2nc3c(C(N)=O)cccc3[nH]2)cc1 [Compound 39, 2-(4-Ureido-benzenesulfonylmethyl)-1H-benzoimidazole-4-carboxylic Acid Amide] |
| 70 ± 15 | NC(=O)c1cccc2[nH]c(SCc3ccccc3)nc12 [Compound 40, 2-Benzylsulfanyl-1H-benzimidazole-4-carboxylic Acid Amide] |
| 800 | NC(=O)c1cccc2[nH]c(S(=O)(=O)Cc3ccccc3)nc12 [Compound 41, 2-Phenylmethansulfonyl-1H-benzimidazole-4-carboxylic Acid Amide] |
| 6.5 ± 1.5 | COc1ccc(CSc2nc3c(C(N)=O)cccc3[nH]2)cc1 [Compound 43, 2-(4-Methoxy-benzylsulfanyl)-1H-benzimidazole-4-carboxylic Acid Amide] |
| 4.7 ± 0.2 | NC(=O)c1cccc2[nH]c(SCc3ccc([N+](=O)[O-])cc3)nc12 [Compound 44, 2-(4-Nitro-benzylsulfanyl)-1H-benzimidazole-4-carboxylic Acid Amide] |
| 48 ± 1 | NC(=O)c1cccc2[nH]c(CSCCN3CCOCC3)nc12 [Compound 45, 2-(2-Morpholin-4-yl-ethylsulfanylmethyl)-1H-benzimidazole-4-carboxylic Acid Amide] |
| 33 ± 3 | NC(=O)c1cccc2[nH]c(CSCCN3CCc4ccccc4C3)nc12 [Compound 46, 2-[2-(3,4-Dihydro-1H-isoquinolin-2-yl)-ethylsulfanylmethyl]-1H-benzoimidazole-4-carboxylic Acid Amide] |
| 93 ± 10 | NC(=O)c1cccc2c1nc1n2CCSC1 [Compound 47, 3,4-Dihydro-1H-2-thia-4a,9-diaza-fluorene-8-carboxylic Acid Amide] |
| 24 ± 3 | NC(=O)c1cccc2[nH]c(CS(=O)(=O)c3ccc(N4C(=O)CNC4=O)cc3)nc12 [Compound 51, 2-[4-(2,5-Dioxo-imidazolidin-1-yl)-benzenesulfonylmethyl]-1H-benzoimidazole-4-carboxylic Acid Amide] |
| 27 ± 4 | CSc1nc2c(C(N)=O)cccc2[nH]1 [Compound 52, 2-Methylsulfanyl-3H-benzoimidazolc-4-carboxylic Acid Amide] |
| 35 ± 6 | CN(CCc1ccccc1)c1nc2c(C(N)=O)cccc2[nH]1 [Compound 54, 2-(Methyl-phenethyl-amino)-1H-benzoimidazole-4-carboxylic Acid Amide] |
| 85 ± 8 | CNc1nc2c(C(N)=O)cccc2[nH]1 [Compound 55, 2-Methylamino-1H-benzoimidazole-4-carboxylic Acid Amide] |
| 319 ± 36 | NC(=O)c1cccc2[nH]c(N)nc12 [Compound 56, 2-Amino-1H-benzoimidazole-4-carboxylic Acid Amide] |
| 44 ± 4 | CN(C)c1nc2c(C(N)=O)cccc2[nH]1 [Compound 57, 2-Dimethylamino-1H-benzoimidazole-4-carboxylic Acid Amide] |
| 66 ± 8 | NC(=O)c1cccc2[nH]c(NCc3ccccc3)nc12 [Compound 58, 2-Benzylamino-1H-benzoimidazole-4-carboxylic Acid Amide] |
| 23 ± 4 | CCN(CC)CCNc1nc2c(C(N)=O)cccc2[nH]1 [Compound 59, 2-(2-Diethylamino-ethylamino)-1H-benzoimidazole-4-carboxylic Acid Amide] |
| 81 ± 10 | NC(=O)c1cccc2[nH]c(NCCc3cccs3)nc12 [Compound 60, 2-(2-Thiophen-2-yl-ethylamino)-1H-benzoimidazole-4-carboxylic Acid Amide] |
| 12 ± 1 | NC(=O)c1cccc2[nH]c(NCCc3cnc[nH]3)nc12 [Compound 61, 2-[2-(3H-Imidazol-4-yl)-ethylamino]-1H-benzoimidazole-4-carboxylic Acid Amide] |
